In ChEMBL document CHEMBL1201862, “PubChem BioAssay data set” (2004):
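All cell lines were grown in 96-well plates and treated with compound for 48 hours. GI50 = concentration required for 50% inhibition of growth.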 The source made the active and inactive calls. No stated cut-off is given here; in the data, active = GI50 up to about 1.1 µM and inactive = higher.

Assays:
Assay in all cases: NCI tumour cell line growth inhibition, 48 h
[1] = system: SNB-75
[2] = system: SN12C
[3] = system: BT-549
[4] = system: K562
[5] = system: COLO 205
[6] = system: SK-MEL-28
[7] = system: CAKI-1
[8] = system: SK-OV-3
[9] = system: SW-620
[10] = system: CCRF-CEM
[11] = system: Malme-3M
[12] = system: HT-29
[13] = system: HCT-116
[14] = system: A498
[15] = system: EKVX
[16] = system: OVCAR-4
[17] = system: M14
[18] = system: MCF7
[19] = system: NCI-H522
[20] = system: HCC 2998

Row | SMILES | GI50 [1] | GI50 [2] | GI50 [3] | GI50 [4] | GI50 [5] | GI50 [6] | GI50 [7] | GI50 [8] | GI50 [9] | GI50 [10] | GI50 [11] | GI50 [12] | GI50 [13] | GI50 [14] | GI50 [15] | GI50 [16] | GI50 [17] | GI50 [18] | GI50 [19] | GI50 [20]
1 | FC(F)(F)c1nc2nc(Cl)c(Cl)nc2n1CCCN1CCOCC1 | 79.3 µM (inactive) | 84.9 µM (inactive) | 56 µM (inactive) | 14.2 µM (inactive) | 54.6 µM (inactive) | 33.7 µM (inactive) | 3.71 µM (inactive) | > 100 µM (inactive) | 42.9 µM (inactive) | 24.7 µM (inactive) | 56 µM (inactive) | 66.8 µM (inactive) | 41.9 µM (inactive) | 97.5 µM (inactive) | 23.4 µM (inactive) | 55.5 µM (inactive) | 48.2 µM (inactive) | 53.1 µM (inactive) | 29.4 µM (inactive) | 
2 | Cc1ccc2c(ccc3[nH]cc(CNc4ccc(NS(C)(=O)=O)cc4)c32)n1 | 18.8 µM (inactive) | 27.2 µM (inactive) | 35.4 µM (inactive) | 18.7 µM (inactive) | 29 µM (inactive) | 23.4 µM (inactive) | 14 µM (inactive) | 27.7 µM (inactive) | 31.2 µM (inactive) | 23.6 µM (inactive) | 18.5 µM (inactive) | 28.3 µM (inactive) | 18.7 µM (inactive) | 15.6 µM (inactive) | 35.4 µM (inactive) | 21.7 µM (inactive) | 17.6 µM (inactive) | 19.3 µM (inactive) | 14.9 µM (inactive) | 
3 | CN(C)CCCN1c2ccccc2Sc2cnccc21 | > 100 µM (inactive) | 74.1 µM (inactive) | > 100 µM (inactive) | 68.5 µM (inactive) | 47 µM (inactive) | 39.1 µM (inactive) | 63.1 µM (inactive) | > 100 µM (inactive) | > 100 µM (inactive) | 93.5 µM (inactive) | > 100 µM (inactive) | 58.6 µM (inactive) | 43.7 µM (inactive) | 31 µM (inactive) | > 100 µM (inactive) | 93.8 µM (inactive) | 52.2 µM (inactive) | 61 µM (inactive) | 65 µM (inactive) | 
4 | CCOC(=O)/C(C(=O)c1ccc[nH]1)=C1/CCCN1C | > 100 µM (inactive) | > 100 µM (inactive) | > 100 µM (inactive) | > 100 µM (inactive) | > 100 µM (inactive) | > 100 µM (inactive) | > 100 µM (inactive) | > 100 µM (inactive) | > 100 µM (inactive) | > 100 µM (inactive) | > 100 µM (inactive) | > 100 µM (inactive) | > 100 µM (inactive) | > 100 µM (inactive) | > 100 µM (inactive) | > 100 µM (inactive) | > 100 µM (inactive) | > 100 µM (inactive) |  | > 100 µM (inactive)
5 | O=[N+]([O-])c1cc2c([N+](=O)[O-])cccc2o1 |  | 12.1 µM (inactive) | 15.7 µM (inactive) |  | 4.57 µM (inactive) | 3.15 µM (inactive) | 2.22 µM (inactive) | 16.8 µM (inactive) | 2.86 µM (inactive) | 2.48 µM (inactive) | 13.6 µM (inactive) | 4.09 µM (inactive) | 2.72 µM (inactive) | 22.4 µM (inactive) | 2.56 µM (inactive) | 1.58 µM (inactive) | 10.2 µM (inactive) | 3.5 µM (inactive) | 0.479 µM (active) | 17.6 µM (inactive)
6 | CCN(C(=O)/C=C/c1ccco1)c1ccccc1 | > 100 µM (inactive) | > 100 µM (inactive) | > 100 µM (inactive) | 46.2 µM (inactive) | > 100 µM (inactive) | > 100 µM (inactive) | > 100 µM (inactive) | > 100 µM (inactive) | > 100 µM (inactive) | > 100 µM (inactive) |  | > 100 µM (inactive) | > 100 µM (inactive) | > 100 µM (inactive) | > 100 µM (inactive) | > 100 µM (inactive) | > 100 µM (inactive) | > 100 µM (inactive) | > 100 µM (inactive) | > 100 µM (inactive)
7 | O=c1[nH]c2cc(F)c(F)cc2nc1Cc1ccccc1 | > 100 µM (inactive) |  | > 100 µM (inactive) | 30 µM (inactive) | > 100 µM (inactive) | > 100 µM (inactive) | > 100 µM (inactive) | > 100 µM (inactive) | > 100 µM (inactive) | > 100 µM (inactive) |  | > 100 µM (inactive) | > 100 µM (inactive) | > 100 µM (inactive) | > 100 µM (inactive) | > 100 µM (inactive) | > 100 µM (inactive) | > 100 µM (inactive) |  | > 100 µM (inactive)
8 | CCOC(=O)C(=Cc1ccccc1Br)C(=O)OCC | 5.58 µM (inactive) | 2.84 µM (inactive) | 2.51 µM (inactive) | 0.656 µM (active) | 2.8 µM (inactive) | 2.4 µM (inactive) | 2.53 µM (inactive) |  | 1.97 µM (inactive) | 9.23 µM (inactive) | 3.48 µM (inactive) | 3.36 µM (inactive) | 2.95 µM (inactive) | 2.03 µM (inactive) | 4.18 µM (inactive) | 4.09 µM (inactive) | 0.424 µM (active) | 1.55 µM (inactive) | 1.64 µM (inactive) | 2.78 µM (inactive)
9 | COc1ccc(Cn2nc(OCc3ccccn3)c3cc([N+](=O)[O-])ccc32)cc1 |  | > 100 µM (inactive) | > 100 µM (inactive) | > 100 µM (inactive) |  | > 100 µM (inactive) | > 100 µM (inactive) | 63.7 µM (inactive) | > 100 µM (inactive) | > 100 µM (inactive) | > 100 µM (inactive) | > 100 µM (inactive) |  | > 100 µM (inactive) |  |  | > 100 µM (inactive) | > 100 µM (inactive) | > 100 µM (inactive) | > 100 µM (inactive)
10 | C[C@@H](C[C@@H](O)[C@H](O)C(C)(C)O)[C@H]1CC=C2[C@]3(C)[C@H](O)C[C@H]4C(C)(C)[C@H](O)CC[C@]4(C)[C@H]3CC[C@@]21C | 17.6 µM (inactive) | 15.7 µM (inactive) | 17.1 µM (inactive) | 15.7 µM (inactive) | 13.7 µM (inactive) | 14.4 µM (inactive) | 16.4 µM (inactive) |  | 17.3 µM (inactive) | 18 µM (inactive) | 14.3 µM (inactive) | 13.4 µM (inactive) | 16.1 µM (inactive) | 15.2 µM (inactive) | 12.3 µM (inactive) | 14.4 µM (inactive) | 15.1 µM (inactive) | 17.2 µM (inactive) | 14 µM (inactive) | 17.3 µM (inactive)
11 | CN(C)c1ccc(/C=N/N=C2\C(=O)Nc3c(Cl)cc(Cl)cc32)cc1 | 22.8 µM (inactive) | > 100 µM (inactive) | 36.6 µM (inactive) | 20.6 µM (inactive) | 52.6 µM (inactive) | 47.3 µM (inactive) | 55.8 µM (inactive) | > 100 µM (inactive) | 35.6 µM (inactive) | 27.8 µM (inactive) | 25.2 µM (inactive) | 26.1 µM (inactive) | 39 µM (inactive) | 32.2 µM (inactive) | 3.41 µM (inactive) | > 100 µM (inactive) | 45.9 µM (inactive) | 46.2 µM (inactive) |  | 64 µM (inactive)
